Results on 11 compounds are retold here after patent US20120184542A1, “PYRIDO PYRIMIDINES” (priority 2011, published 2012).

Broadly, the IC50 is the concentration needed to halve the response being measured. For orientation: EC50 means the concentration that produces a half-maximal response.

Structures are written as SMILES. Like-named read-outs stand apart in the source and are kept apart here. Some results are limits rather than exact numbers.

Test [1] concerns the target T1, Human DYRK1B (Homo sapiens, UniProt Q9Y463).
T1 construct: purchased Invitrogen PR8350B (former PV4649)
Put plainly: DYRK1B Kinase TR-FRET (IMAP-Tb) Assay. The test is classed as biochemical. The following applies: TR-FRET (IMAP-Tb), ATP 70 μM, 37° C. 60 minutes. On the technique in general: In TR-FRET formats the signal depends on donor and acceptor labels being close together.

For test [2], the system named is SW620 human colon cancer cells. Description: SW620 Cell Viability Assay. The test is classed as cell-based. The following applies: Homo sapiens, SW-620, 96 h, read-out: Cellular EC50 (μM) SW620. The procedure:
Some cells (S—) were allowed to attach for 24 hrs, serum starved for 48 hrs, and then followed with drug treatments Test Compound Solutions were Prepared in Regular Corresponding Media Supplemented with Serum 2. […] Viability Assay: This assay was performed as follows: • Transfer 50 μL of test compound solution per well from the test compound plate onto the cell plate prepared in Step #1. • Mix the plate with treated cells by pipetting up and down three times with 200 μL multi-channel pipette. • Incubate the cells in 5% CO2 incubator @ 37° C. for 4 days. • Run the CellTiter-Glo™ Luminescent Cell Viability Assay.

Where [3] appears, read: read-out: Enzyme IC50 (μM) DYRK1B.

T1 sequence (Q9Y463 whole entry): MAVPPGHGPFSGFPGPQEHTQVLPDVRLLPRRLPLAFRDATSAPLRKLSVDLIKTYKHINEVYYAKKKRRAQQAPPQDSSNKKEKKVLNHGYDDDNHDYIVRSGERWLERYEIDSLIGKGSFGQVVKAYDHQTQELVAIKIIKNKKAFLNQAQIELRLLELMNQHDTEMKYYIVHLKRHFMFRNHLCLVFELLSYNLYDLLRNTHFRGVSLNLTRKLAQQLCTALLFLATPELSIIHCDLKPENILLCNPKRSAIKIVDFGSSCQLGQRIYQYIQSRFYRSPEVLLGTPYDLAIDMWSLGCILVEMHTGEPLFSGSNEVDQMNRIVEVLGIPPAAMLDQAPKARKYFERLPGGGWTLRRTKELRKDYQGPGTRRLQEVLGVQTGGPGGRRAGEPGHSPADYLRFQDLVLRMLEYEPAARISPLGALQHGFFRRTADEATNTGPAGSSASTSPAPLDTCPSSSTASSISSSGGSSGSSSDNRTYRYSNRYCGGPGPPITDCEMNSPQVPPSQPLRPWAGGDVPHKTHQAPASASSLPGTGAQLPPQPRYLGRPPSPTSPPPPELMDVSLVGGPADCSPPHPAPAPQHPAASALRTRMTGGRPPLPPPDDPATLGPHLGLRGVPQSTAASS

For `COC(=O)c1ccc(C)c(NC(=O)c2cc3cnc(OC)nc3[nH]c2=O)c1` [Example 19, 3-[(2-Methoxy-7-oxo-7,8-dihydro-pyrido[2,3-d]pyrimidine-6-carbonyl)-amino]-4-methyl-benzoic acid methyl ester], the IC50 in test [1] (Enzyme IC50 (μM) DYRK1B) is 0.252 µM. Moreover, the concentration for a half-maximal effect (EC50) in test [2] was 92.5 µM.
`COC(=O)c1ccc(Cl)c(NC(=O)c2cc3cnc(OC)nc3[nH]c2=O)c1` [Example 21, 4-Chloro-3-[(2-methoxy-7-oxo-7,8-dihydro-pyrido[2,3-d]pyrimidine-6-carbonyl)-amino]-benzoic acid methyl ester] returned a concentration for half-maximal inhibition (IC50) in test [1] (Enzyme IC50 (μM) DYRK1B) of 0.135 µM. Also, the 50% effective concentration (EC50) in test [2] worked out at 3.34 µM.
The corresponding values for `COc1ncc2cc(C(=O)Nc3cc(C(=O)NCc4ccccc4)ccc3Cl)c(=O)[nH]c2n1` [Example 31, 2-Methoxy-7-oxo-7,8-dihydro-pyrido[2,3-d]pyrimidine-6-carboxylic acid (5-benzylcarbamoyl-2-chloro-phenyl)-amide] are 0.048 µM and over 100 µM.
On the same counts, the results for `COc1ncc2cc(C(=O)Nc3cc(C(=O)NCc4cccs4)ccc3Cl)c(=O)[nH]c2n1` [Example 57, 2-Methoxy-7-oxo-7,8-dihydro-pyrido[2,3-d]pyrimidine-6-carboxylic acid {2-chloro-5-[(thiophen-2-ylmethyl)-carbamoyl]-phenyl}-amide] are 0.096 µM and 2.41 µM.
Compound `COc1ncc2cc(C(=O)Nc3cc(C(=O)NCc4ccsc4)ccc3Cl)c(=O)[nH]c2n1` [Example 58, 2-Methoxy-7-oxo-7,8-dihydro-pyrido[2,3-d]pyrimidine-6-carboxylic acid {2-chloro-5-[(thiophen-3-ylmethyl)-carbamoyl]-phenyl}-amide] gave an IC50 in test [1] (Enzyme IC50 (μM) DYRK1B) of 0.04 µM. In addition, the EC50 in test [2] is 1.73 µM.
As for `COc1ncc2cc(C(=O)Nc3cc(C(=O)NC(CN)c4ccccc4)ccc3Cl)c(=O)[nH]c2n1` (stereo not shown) [Example 72, 2-Methoxy-7-oxo-7,8-dihydro-pyrido[2,3-d]pyrimidine-6-carboxylic acid [5-(2-amino-1-phenyl-ethylcarbamoyl)-2-chloro-phenyl]-amide], the concentration for half-maximal inhibition (IC50) in test [1] (setting [3]) stood at 0.00935 µM. Moreover, in test [2], the half-maximal effective concentration (EC50) amounted to 0.828 µM.
Turning to `COc1ncc2cc(C(=O)Nc3cc(C(=O)NC(CCN)c4ccccc4)ccc3Cl)c(=O)[nH]c2n1` (stereo not shown) [Example 76, 2-Methoxy-7-oxo-7,8-dihydro-pyrido[2,3-d]pyrimidine-6-carboxylic acid [5-(3-amino-1-phenyl-propylcarbamoyl)-2-chloro-phenyl]-amide], the IC50 in test [1] (setting [3]) amounted to 0.0128 µM. For the same compound, the EC50 in test [2] came to 0.657 µM.
As for `CNC(=O)c1ccc(Cl)c(NC(=O)c2cc3cnc(OC)nc3[nH]c2=O)c1` [Example 78, 2-Methoxy-7-oxo-7,8-dihydro-pyrido[2,3-d]pyrimidine-6-carboxylic acid (2-chloro-5-methylcarbamoyl-phenyl)-amide], half-maximal inhibition in test [1] (Enzyme IC50 (μM) DYRK1B) (IC50) required 0.248 µM. The EC50 in test [2] amounted to 2.52 µM.
On to `COc1ncc2cc(C(=O)Nc3cc(C(=O)NC(CCN)c4cccc(Cl)c4)ccc3Cl)c(=O)[nH]c2n1` (stereo not shown) [Example 84, 2-Methoxy-7-oxo-7,8-dihydro-pyrido[2,3-d]pyrimidine-6-carboxylic acid {5-[3-amino-1-(3-chloro-phenyl)-propylcarbamoyl]-2-chloro-phenyl}-amide], for which the concentration for half-maximal inhibition (IC50) in test [1] (Enzyme IC50 (μM) DYRK1B) was 0.0108 µM. In test [2], the EC50 was found to be 0.235 µM.
Compound `COc1ncc2cc(C(=O)Nc3cc(C(N)=O)ccc3Cl)c(=O)[nH]c2n1` [Example 88, 2-Methoxy-7-oxo-7,8-dihydro-pyrido[2,3-d]pyrimidine-6-carboxylic acid (5-carbamoyl-2-chloro-phenyl)-amide] showed an IC50 in test [1] (Enzyme IC50 (μM) DYRK1B) of 0.0749 µM. In addition, the half-maximal effective concentration (EC50) in test [2] is over 10 µM.
For `COc1ncc2cc(C(=O)Nc3cc(C(=O)NC(CCN(C)C)c4cccc(Cl)c4)ccc3Cl)c(=O)[nH]c2n1` (stereo not shown) [Example 96, 2-Methoxy-7-oxo-7,8-dihydro-pyrido[2,3-d]pyrimidine-6-carboxylic acid {2-chloro-5-[1-(3-chloro-phenyl)-3-dimethylamino-propylcarbamoyl]-phenyl}-amide], the concentration for half-maximal inhibition (IC50) in test [1] (setting [3]) came to 0.233 µM. Moreover, the EC50 in test [2] is 1.97 µM.
